From US20090118331A1, “Use of Lobeline Epimers in the Treatment of Central Nervous System Diseases, Pathologies, and Drug Abuse” (priority 2007, published 2009)

Legend:
[1] = Lobeline conversion to epimer in the buffer system used at 37° C. in the VMAT2 uptake study (HPLC); assay type: physicochemical; settings: for Lobeline %: VMAT2 uptake buffer, 37° C.
[2] = in vivo; settings: for AUC(0-inf) / AUC(0-t) / Cmax / MRT last / Tmax / Vd / clearance / half-life: rat, in vivo
Method: Here, serial doses of lobeline were administered to male and female rats intravenously, subcutaneously or orally, and the pharmacokinetic profiles of the parent lobeline and its epimer were monitored in plasma.

For `CN1[C@@H](CC(=O)c2ccccc2)CCC[C@H]1C[C@H](O)c1ccccc1` [Lobeline, 2-[6S-(2S-hydroxy-2-phenyl-ethyl)-1-methyl-piperidin-2R-yl]-1-phenyl-ethanone], the “component content of solution” value ([1]; 37° C. uptake buffer with ATP-Mg2+ cofactor reduced from 2 mM to 0.4 mM, after 2 hours, with impurity) was 66%, the “final component concentration (as a function of the area under the curve)” value ([1]; VMAT2 uptake buffer (HEPES), 2 hour incubation at 37° C.) was 69% and the Lobeline % ([1]; T0, sample age 0:01) was 98.2%. The Lobeline % ([1]; T5, sample age 0:05) was 96.7%, the Lobeline % ([1]; T10, sample age 0:10) was 94.4% and the Lobeline % ([1]; T15, sample age 0:15) was 91.2%. The Lobeline % ([1]; T25, sample age 0:25) was 86.5%, the Lobeline % ([1]; T30, sample age 0:30) was 84.7% and the Lobeline % ([1]; T35, sample age 0:35) was 83.4%. The Lobeline % ([1]; T40, sample age 0:40) was 81.8%, the Lobeline % ([1]; T45, sample age 0:45) was 80.6% and the Lobeline % ([1]; T50, sample age 0:50) was 79.3%. The Lobeline % ([1]; T55, sample age 0:55) was 78.5%, the Lobeline % ([1]; T60, sample age 1:00) was 77.2% and the Lobeline % ([1]; T70, sample age 1:10) was 75.0%. It also gave a Lobeline % ([1]; T80, sample age 1:20) of 73.1%, a Lobeline % ([1]; T90, sample age 1:31) of 72.2% and a Lobeline % ([1]; T100, sample age 1:40) of 71.1%. The Lobeline % ([1]; T110, sample age 1:50) was 69.6%, the Lobeline % ([1]; T120, sample age 2:00) was 68.5% and the AUC(0-inf) ([2]; female, iv, 2 mg/kg) was 0.134 µg·h/mL. It also gave an AUC(0-t) ([2]; female, iv, 2 mg/kg) of 0.133 µg·h/mL, a Cmax ([2]; female, iv, 2 mg/kg) of 0.106 µg/mL and an MRT last ([2]; female, iv, 2 mg/kg) of 1.72 h. It also gave a Tmax ([2]; female, iv, 2 mg/kg) of 0.083 h, a Vd ([2]; female, iv, 2 mg/kg) of 27.2 L/kg and a clearance ([2]; female, iv, 2 mg/kg) of 0.0149 L/h/kg. The half-life ([2]; female, iv, 2 mg/kg) was 1.85 h, the AUC(0-inf) ([2]; female, po, 20 mg/kg) was 0.0645 µg·h/mL and the AUC(0-t) ([2]; female, po, 20 mg/kg) was 0.0627 µg·h/mL. The Cmax ([2]; female, po, 20 mg/kg) was 0.0425 µg/mL, the MRT last ([2]; female, po, 20 mg/kg) was 1.92 h and the Tmax ([2]; female, po, 20 mg/kg) was 0.5 h. It also gave a half-life ([2]; female, po, 20 mg/kg) of 2.29 h, an AUC(0-inf) ([2]; female, sc, 3 mg/kg) of 0.193 µg·h/mL and an AUC(0-t) ([2]; female, sc, 3 mg/kg) of 0.191 µg·h/mL. It also gave a Cmax ([2]; female, sc, 3 mg/kg) of 0.142 µg/mL, an MRT last ([2]; female, sc, 3 mg/kg) of 1.42 h and a Tmax ([2]; female, sc, 3 mg/kg) of 0.25 h. It also gave a half-life ([2]; female, sc, 3 mg/kg) of 1.14 h, an AUC(0-inf) ([2]; male, iv, 2 mg/kg) of 0.135 µg·h/mL and an AUC(0-t) ([2]; male, iv, 2 mg/kg) of 0.135 µg·h/mL. For the same compound, the Cmax ([2]; male, iv, 2 mg/kg) was 0.144 µg/mL, the MRT last ([2]; male, iv, 2 mg/kg) was 1.54 h and the Tmax ([2]; male, iv, 2 mg/kg) was 0.083 h. The Vd ([2]; male, iv, 2 mg/kg) was 23.8 L/kg, the clearance ([2]; male, iv, 2 mg/kg) was 0.0148 L/h/kg and the half-life ([2]; male, iv, 2 mg/kg) was 1.68 h. The AUC(0-inf) ([2]; male, po, 20 mg/kg) was 0.105 µg·h/mL, the AUC(0-t) ([2]; male, po, 20 mg/kg) was 0.104 µg·h/mL and the Cmax ([2]; male, po, 20 mg/kg) was 0.0912 µg/mL. It also gave an MRT last ([2]; male, po, 20 mg/kg) of 1.88 h, a Tmax ([2]; male, po, 20 mg/kg) of 0.5 h and a half-life ([2]; male, po, 20 mg/kg) of 1.97 h. For the same compound, the AUC(0-inf) ([2]; male, sc, 3 mg/kg) was 0.191 µg·h/mL, the AUC(0-t) ([2]; male, sc, 3 mg/kg) was 0.19 µg·h/mL and the Cmax ([2]; male, sc, 3 mg/kg) was 0.162 µg/mL. It also gave an MRT last ([2]; male, sc, 3 mg/kg) of 1.35 h, a Tmax ([2]; male, sc, 3 mg/kg) of 0.083 h and a half-life ([2]; male, sc, 3 mg/kg) of 1.18 h. For the same compound, the “ratio of lobeline to epimer in plasma (comparison of AUC; x to 1)” value ([2]; rats, depending on sex and route of administration) was 1.5-2 and the “systemic absorption of lobeline, followed by subsequent epimerization, when given orally” value ([2]; rats, females compared to males) was “significantly reduced in females as compared to males”.
